Data taken from patent US20250188057A1, “NON-AROMATIC CYCLIC-PYRIMIDINE ANALOGS AS GLUCOSYLCERAMIDE SYNTHASE INHIBITORS” (Merck Sharp & Dohme LLC, priority 2022, published 2025).

Target: glucosylceramide synthase (GCS) (Homo sapiens (Human), UniProt Q16739)
Experiment: UDP-Glo glucosylceramide synthase biochemical assay
Details: endogenous GCS in Golgi preparations isolated from human A375 malignant melanoma skin cells; UDP detection by luminescence
Description: A UDP-Glo™ glucosylceramide synthase biochemical assay was utilized to evaluate the effect of test compounds on the activity of endogenous levels of GCS enzyme contained within Golgi preparations isolated from human A375 malignant melanoma skin cells. The UDP-Glo™ glucosylceramide synthase assay uses UDP-Glucose as a nucleotide-glycosyl donor and ceramide as substrate acceptor molecules. In the reaction, glucosylceramide synthase (GCS) transfers glucose from UDP-Glucose to ceramide. Glucosylceramide and UDP are released as products.
Using Promega's UDP-Glo™ Glycosyltransferase assay kit (Promega Corporation, Madison, WI, USA (Promega)), GCS activity was indirectly measured by detecting the amount of UDP produced. An aliquot of GCS enzyme (1.5 μg crude golgi preparation, total protein) and titrated test compound were aliquoted to each well and incubated for 30 minutes at room temperature. […] An equivalent volume of substrate mixture was then added to each well. Following a 20 h incubation at room temperature to allow for GCS turnover of substrate, an equal volume of UDP detection reagent (Promega) was added to each well and incubated for an additional 75 minutes at room temperature to simultaneously convert the accumulated UDP product into ATP and generate light in a luciferase reaction. The generated light was detected using a luminometer. […] luminescence values (RLUs) were normalized to mean “min” and “max” effects, as determined on each plate. “Min” was defined as the mean of the values of the wells treated with vehicle (DMSO) and which represent 0% inhibition; “max” was defined as the mean of the values of the wells treated with a reference inhibitor and which represent the 100% effect. Values for % Emax and EC50 were determined by best-fitting the normalized data to a curve in Activity Base along a four-parameter logistic nonlinear regression (4PL) model (based on the Levenberg-Marquardt algorithm and defined by the equation below): […]
where: n is 4PMin (bottom of the curve); m is 4PMax (top of the curve); i is IP (inflection point of curve); and p is slope. See Levenberg, K., “A Method for the Solution of Certain Problems in Least Squares”, Quart. Appl. Math. 2, (1944), pp 164-168 and Marquardt, D., “An Algorithm for Least Squares Estimation on Nonlinear Parameters”, SIAM J. Appl. Math 11, (1963) pp 431-441.

Sequence of glucosylceramide synthase (GCS) (Q16739 whole entry): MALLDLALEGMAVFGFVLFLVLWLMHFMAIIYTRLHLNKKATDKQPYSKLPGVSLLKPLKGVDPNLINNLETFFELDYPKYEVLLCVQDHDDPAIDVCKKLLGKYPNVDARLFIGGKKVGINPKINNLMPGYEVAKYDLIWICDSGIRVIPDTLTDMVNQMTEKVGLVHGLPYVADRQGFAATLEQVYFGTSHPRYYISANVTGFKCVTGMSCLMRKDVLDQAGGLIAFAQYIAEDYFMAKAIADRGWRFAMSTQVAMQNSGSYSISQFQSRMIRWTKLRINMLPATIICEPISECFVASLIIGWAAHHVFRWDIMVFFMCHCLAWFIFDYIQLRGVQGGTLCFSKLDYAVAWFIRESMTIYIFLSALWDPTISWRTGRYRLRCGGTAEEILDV

Compound | IC50 [nM]
Cc1nc2c(s1)CCCC2Nc1nc(C2CC2)nc(Cl)c1CO (single isomer, unassigned) [Compound 110, (4-chloro-2-cyclopropyl-6-((2-methyl-4,5,6,7-tetrahydrobenzo[d]thiazol-4-yl)amino)pyrimidin-5-yl)methanol] | 266
OCc1cnc(C2CC2)nc1OC[C@H]1CCN(c2ccc(C(F)(F)F)nc2)C1 [Compound 1, (S)-(2-cyclopropyl-4-((1-(6-(trifluoromethyl)pyridin-3-yl)pyrrolidin-3-yl)methoxy)pyrimidin-5-yl)methanol] | 579
OCc1cnc(C2CC2)nc1OC[C@@H]1CCN(c2ccc(C(F)(F)F)nc2)C1 [Compound 2, (R)-(2-cyclopropyl-4-((1-(6-(trifluoromethyl)pyridin-3-yl)pyrrolidin-3-yl)methoxy)pyrimidin-5-yl)methanol] | 568
OCc1cnc(C2CC2)nc1OC[C@@H]1CN(c2ccc(C(F)(F)F)nc2)CCO1 [Compound 3, (S)-(2-cyclopropyl-4-((4-(6-(trifluoromethyl)pyridin-3-y)morpholin-2-yl)methoxy)pyrimidin-5-yl)methanol] | 2320
OCc1cnc(C2CC2)nc1OC[C@H]1CN(c2ccc(C(F)(F)F)nc2)CCO1 [Compound 4, (R)-(2-cyclopropyl-4-((4-(6-(trifluoromethyl)pyridin-3-yl)morpholin-2-yl)methoxy)pyrimidin-5-yl)methanol] | 1380
OCc1cnc(C2CC2)nc1OCC1CCN(c2ccc(C(F)(F)F)nc2)CC1 [Compound 5, (2-cyclopropyl-4-((1-(6-(trifluoromethyl)pyridin-3-yl)piperidin-4-yl)methoxy)pyrimidin-5-yl)methanol] | 3410
OCc1cnc(C2CC2)nc1OC1CCN(c2ccc(C(F)(F)F)nc2)CC1 [Compound 6, (2-cyclopropyl-4-((1-(6-(trifluoromethyl)pyridin-3-yl)piperidin-4-yl)oxy)pyrimidin-5-yl)methanol] | 1440
N#Cc1cnc(C2CC2)nc1OC[C@H]1CCN(c2ccc(-n3cccn3)cc2)C1 [Compound 7, (S)-4-((1-(4-(1H-pyrazol-1-yl)phenyl)pyrrolidin-3-yl)methoxy)-2-cyclopropylpyrimidine-5-carbonitrile] | 4.3
N#Cc1cnc(C2CC2)nc1OC[C@H]1CCN(c2cnc(-c3ccccc3)o2)C1 [Compound 8, (S)-2-cyclopropyl-4-((1-(2-phenyloxazol-5-yl)pyrrolidin-3-yl)methoxy)pyrimidine-5-carbonitrile] | 889
N#Cc1cnc(C2CC2)nc1OC[C@H]1CCN(c2cccc(-c3ncco3)c2)C1 [Compound 9, (S)-2-cyclopropyl-4-((1-(3-(oxazol-2-yl)phenyl)pyrrolidin-3-yl)methoxy)pyrimidine-5-carbonitrile] | 826
N#Cc1cnc(C2CC2)nc1OC[C@H]1CCN(c2cccc(-c3nccs3)c2)C1 [Compound 10, (S)-2-cyclopropyl-4-((1-(3-(thiazol-2-yl)phenyl)pyrrolidin-3-yl)methoxy)pyrimidine-5-carbonitrile] | 249
N#Cc1cnc(C2CC2)nc1OC[C@H]1CCN(c2ccc(-c3ncco3)cc2)C1 [Compound 11, (S)-2-cyclopropyl-4-((1-(4-(oxazol-2-yl)phenyl)pyrrolidin-3-yl)methoxy)pyrimidine-5-carbonitrile] | 35
COc1cccc(N2CC[C@H](COc3nc(C4CC4)ncc3C#N)C2)n1 [Compound 12, (S)-2-cyclopropyl-4-((1-(6-methoxypyridin-2-yl)pyrrolidin-3-yl)methoxy)pyrimidine-5-carbonitrile] | 529
Cc1nnc(-c2ccc(N3CC[C@H](COc4nc(C5CC5)ncc4C#N)C3)cc2)s1 [Compound 13, (S)-2-cyclopropyl-4-((1-(4-(5-methyl-1,3,4-thiadiazol-2-yl)phenyl)pyrrolidin-3-yl)methoxy)pyrimidine-5-carbonitrile] | 80
N#Cc1cnc(C2CC2)nc1OC[C@H]1CCN(c2sccc2C#N)C1 [Compound 14] | 141
Cc1nccc(-c2cccc(N3CC[C@H](COc4nc(C5CC5)ncc4C#N)C3)c2)n1 [Compound 15, (S)-2-cyclopropyl-4-((1-(3-(2-methylpyrimidin-4-yl)phenyl)pyrrolidin-3-yl)methoxy)pyrimidine-5-carbonitrile] | 816

Compound | IC50 [nM]
N#Cc1cnc(C2CC2)nc1OC[C@H]1CCN(c2cccc(-n3cccn3)c2)C1 [Compound 16, (S)-4-((1-(3-(1H-pyrazol-1-yl)phenyl)pyrrolidin-3-yl)methoxy)-2-cyclopropylpyrimidine-5-carbonitrile] | 357
Cc1cnc(N2CC[C@H](COc3nc(C4CC4)ncc3C#N)C2)c(C)c1 [Compound 17, (S)-2-cyclopropyl-4-((1-(3,5-dimethylpyridin-2-yl)pyrrolidin-3-yl)methoxy)pyrimidine-5-carbonitrile] | 1020
N#Cc1cnc(C2CC2)nc1OC[C@H]1CCN(c2ccc(-c3ccno3)cc2)C1 [Compound 18, (S)-2-cyclopropyl-4-((1-(4-(isoxazol-5-yl)phenyl)pyrrolidin-3-yl)methoxy)pyrimidine-5-carbonitrile] | 67
N#Cc1cnc(C2CC2)nc1OC[C@H]1CCN(c2ccc(-c3ccon3)cc2)C1 [Compound 19, (S)-2-cyclopropyl-4-((1-(4-(isoxazol-3-yl)phenyl)pyrrolidin-3-yl)methoxy)pyrimidine-5-carbonitrile] | 37
N#Cc1cnc(C2CC2)nc1OC[C@H]1CCN(c2cccc(-n3nccn3)c2)C1 [Compound 20, (S)-4-((1-(3-(2H-1,2,3-triazol-2-yl)phenyl)pyrrolidin-3-yl)methoxy)-2-cyclopropylpyrimidine-5-carbonitrile] | 354
N#Cc1cnc(C2CC2)nc1OC[C@H]1CCN(c2cnc3ccsc3c2)C1 [Compound 21, (S)-2-cyclopropyl-4-((1-(thieno[3,2-b]pyridin-6-yl)pyrrolidin-3-yl)methoxy)pyrimidine-5-carbonitrile] | 1300
N#Cc1cnc(C2CC2)nc1OC[C@H]1CCN(c2ccc(-c3cnco3)cc2)C1 [Compound 22, (S)-2-cyclopropyl-4-((1-(4-(oxazol-5-yl)phenyl)pyrrolidin-3-yl)methoxy)pyrimidine-5-carbonitrile] | 26
N#Cc1cnc(C2CC2)nc1OC[C@H]1CCN(c2nnc(C3CC3)s2)C1 [Compound 23, (S)-2-cyclopropyl-4-((1-(5-cyclopropyl-1,3,4-thiadiazol-2-yl)pyrrolidin-3-yl)methoxy)pyrimidine-5-carbonitrile] | 3660
N#Cc1cnc(C2CC2)nc1OC[C@H]1CCN(c2ccc(C3CC3)nc2)C1 [Compound 24, (S)-2-cyclopropyl-4-((1-(6-cyclopropylpyridin-3-yl)pyrrolidin-3-yl)methoxy)pyrimidine-5-carbonitrile] | 377
CCOc1ccc(N2CC[C@H](COc3nc(C4CC4)ncc3C#N)C2)cn1 [Compound 25, (S)-2-cyclopropyl-4-((1-(6-ethoxypyridin-3-yl)pyrrolidin-3-yl)methoxy)pyrimidine-5-carbonitrile] | 231
N#Cc1cnc(C2CC2)nc1OC[C@H]1CCN(c2ncccc2C(F)F)C1 [Compound 26, (S)-2-cyclopropyl-4-((1-(3-(difluoromethyl)pyridin-2-yl)pyrrolidin-3-yl)methoxy)pyrimidine-5-carbonitrile] | 4660
N#Cc1cnc(C2CC2)nc1OC[C@H]1CCN(c2ccnc(C3CCC3)c2)C1 [Compound 27, (S)-4-((1-(2-cyclobutylpyridin-4-yl)pyrrolidin-3-yl)methoxy)-2-cyclopropylpyrimidine-5-carbonitrile] | 3620
COc1ccc(C)nc1N1CC[C@H](COc2nc(C3CC3)ncc2C#N)C1 [Compound 28, (S)-2-cyclopropyl-4-((1-(3-methoxy-6-methylpyridin-2-yl)pyrrolidin-3-yl)methoxy)pyrimidine-5-carbonitrile] | 4520
N#Cc1cnc(C2CC2)nc1OC[C@H]1CCN(c2ccc(OC(F)F)cn2)C1 [Compound 29, (S)-2-cyclopropyl-4-((1-(5-(difluoromethoxy)pyridin-2-yl)pyrrolidin-3-yl)methoxy)pyrimidine-5-carbonitrile] | 148
Cc1cc(N2CC[C@H](COc3nc(C4CC4)ncc3C#N)C2)ncc1F [Compound 30, (S)-2-cyclopropyl-4-((1-(5-fluoro-4-methylpyridin-2-yl)pyrrolidin-3-yl)methoxy)pyrimidine-5-carbonitrile] | 1240
N#Cc1cnc(C2CC2)nc1OC[C@H]1CCN(c2ccc(-n3ccnc3)cc2)C1 [Compound 31, (S)-4-((1-(4-(1H-imidazol-1-yl)phenyl)pyrrolidin-3-yl)methoxy)-2-cyclopropylpyrimidine-5-carbonitrile] | 28
